From publication PMC12355554, “Development of novel mitochondrial pyruvate carrier inhibitors for breast cancer treatment” (The Journal of Biological Chemistry, 2025) come the findings set out here.

Series [1] has as its target T1, mitochondrial pyruvate carrier (MPC) (Mus musculus, UniProt P63030+Q9D023).
T1 construct: host or cells: 4T1 murine breast cancer cells, rPFO-permeabilized
T1 sequence (P63030 1-109): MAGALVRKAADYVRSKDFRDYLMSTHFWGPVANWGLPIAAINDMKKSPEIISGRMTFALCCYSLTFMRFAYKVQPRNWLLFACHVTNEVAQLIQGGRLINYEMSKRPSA
T1 sequence (Q9D023 1-127): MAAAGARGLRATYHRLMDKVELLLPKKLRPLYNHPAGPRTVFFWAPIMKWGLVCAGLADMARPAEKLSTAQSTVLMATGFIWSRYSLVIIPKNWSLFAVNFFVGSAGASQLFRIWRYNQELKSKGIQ
In words: Seahorse XFe96 Pyr-driven respiration in rPFO-permeabilized 4T1 cells. Format: cell-based, murine. The following applies: read-out: IC50, inhibition of Pyr-driven respiration. As to the method:
After validating the ability of rPFO to permeabilize 4T1 cells without damaging mitochondria, we sought to investigate the ability of candidate compounds to inhibit Pyr-driven respiration in these cells (Fig. 1, D–G). In this regard, 4T1 cells were seeded in Seahorse XFe96 well plates and were incubated to reach confluence (∼18–24 h) in growth media (+serum). Growth media were then aspirated, and cells were washed with MAS buffer to remove serum and endogenous metabolic substrates. Serum- and substrate-starved cells were then incubated for equilibration in MAS buffer in a non-CO2 incubator. Inhibitors, rPFO, and substrate milieus were prepared in MAS buffer to be injected in succession to allow for real-time observation of the effects of compound-treated cultures on oxygen consumption rates (OCRs) when compared with vehicle (dimethyl sulfoxide [DMSO])-treated cells. Equilibrated intact cells were allowed to establish basal respiratory rates, followed by the injection of candidate compounds C1 to C4 at varying dose-titrated concentrations, respectively, and acute decreases in OCR were observed (Fig. 1, D–G). Compound exposure was performed in intact cells to avoid influence of rPFO on acute cellular targets. Cells were then exposed to rPFO, followed by the carbonyl cyanide-p-trifluoromethoxyphenylhydrazone (FCCP)–stimulated Pyr substrate milieu, which consisted of Pyr, malate (Mal), and dichloroacetate (DCA) to fuel uninhibited Pyr respiratory flux and maximal respiration. Mal and DCA were included to allow for continuous TCA cycle function without acetyl CoA feedback–mediated inhibition (Mal) or Pyr dehydrogenase–regulated inhibition (DCA) of Pyr uptake. Here, we observed a dose-dependent inhibition of Pyr-driven respiration in cells treated with the candidate compounds, allowing for logarithmic dose–response curves to be generated, and 50% inhibitory concentrations (IC50) to be calculated (Fig. 1, D–G). Finally, complex I and […] were injected to halt respiration and end the assay. […] In this regard, the fluoro-aminocarboxycoumarin derivative C4 has been designated as the lead candidate for further investigation.
Permeabilized cell assays were performed using rPFO as described previously. 4T1 cells were seeded (20,000 cells/well) onto Seahorse XFe96 well plates and incubated overnight in growth media at 37 °C and 5% CO2 for adherence. On the day of the assay, growth media were aspirated and replaced with MAS buffer (70 mM sucrose, 220 mM mannitol, 10 mM potassium phosphate monobasic, 5 mM magnesium chloride, 2 mM Hepes, and 1 mM EGTA) after 3X rinse of growth media to remove serum and endogenous metabolic substrates, and incubated at 37 °C in a non-CO2 incubator. Respective inhibitor and substrate milieu's were prepared in MAS buffer for port injections A–D at 8X, 9X, 10X, and 11X the target cell concentrations to account for intrinsic dilution factor of in situ injections of each port. […] Final substrate concentrations for specific tests were as follows: (5 mM Pyr , 0.5 mM Mal, 2 mM DCA; 10 mM glutamate, 0.5 mM Mal, 2 mM DCA; 10 mM succinate, 2 μM rotenone; 20 mM methyl Pyr, 5 mM Pyr, 0.5 mM Mal, and 2 mM DCA). ATP rate assays and mitochondrial stress tests were performed according to the manufacturer's (Agilent) instructions.

The test system of series [2] is 67NR. The experiment in a line: MTT cell proliferation inhibition assay, 67NR. Format: cell-based, murine. To be noted: Mus musculus, 72 h, 3 days, average ± SEM. As to the method: Confluent cell cultures were treated with trypsin and resuspended at 5 × 10^4 cells/ml. To a 96-well plate, 100 μl of the 5 × 10^4 cells/ml solution were added and allowed to incubate at 37 °C, 5% CO2 for 24 h. Compounds were then added and allowed to incubate for 3 days. […] Following the 4-h incubation with 3-(4,5-dimethylthiazol-2-yl)-2,5-diphenyltetrazolium bromide, 100 μl of SDS (0.1 g/ml, 0.01 N HCl) was added, and 96-well plates were allowed to incubate for an additional 4 h. […] Treatment absorbances are taken as percentages of the average untreated absorbances and plotted against log(concentration) in GraphPad Prism 10 (GraphPad Software, Inc) to generate effective concentration values where 50% of the cells are not proliferating (EC50).

Series [3] deals with 67NR. In words: Sulforhodamine B cell proliferation inhibition assay, 67NR. Format: cell-based, murine. The following applies: Mus musculus, 72 h, average ± SEM. As to the method: Cells were seeded (3 × 10^4 cells/well) in 48-well plates and incubated overnight (37 °C, 5% CO2). Test compounds were then exposed to cells in duplicate in serial dilution fashion and were incubated for an additional 72 h (37 °C, 5% CO2). Media were then aspirated, and cells were washed three times with cold PBS and left overnight to dry fix. […] Dyed cells were then lysed with Tris (10 mM, pH 10), and absorbance readings were recorded at 540 nm of each well. Treatment absorbances are taken as percentages of the average untreated absorbances and plotted against log(concentration) in GraphPad Prism 10 to generate effective concentration values where 50% of the cells are not proliferating (EC50).

Series [4] can be described thus: Intrinsic CL in human liver microsomes. Format: in vitro ADME.
Series [5] can be described thus: in vivo. The following applies: BALB/c, mouse; for bioavailability / Vd / clearance: plasma; for half-life: in vivo.
Protocol: IV dosing allows for analysis under the assumption of total systemic absorption (Fig. S3A).
In a contract organization Medicilon, 35 male and 35 female BALB/c mice were randomized and put into two groups (n = 15) per sex for each route of administration (4 total groups). Extra mice were used for collection of blank plasma. […] Each time point utilized three mice per group, and each mouse had two blood draws. The blood samples were collected in K2EDTA tubes on ice, centrifuged at 6800g (6 min, 4 °C) to generate plasma samples. The plasma samples were stored below −70 °C until LC–MS/MS analysis. […] After data acquisition, noncompartmental analysis parameters were calculated by Pheonix WinNonlin 7.0.
Series [6] deals with 4T1 tumor. In words: Tumor efficacy study in a 4T1 syngraft. To be noted: 5 mg/kg daily for 11 days.
The test system of series [7] is MPC1 and MPC2 KO 4T1 cells. In words: Pyr-driven respiration in CRISPR-Cas9 MPC1/MPC2 KO 4T1 cells. The following applies: permeabilized MPC1/MPC2 KO 4T1 cells, FCCP stimulated.

As a reminder, the EC50 is the midpoint of the concentration-response curve. The half-life is how long it takes for the measured level to halve. Lower therefore signals fast loss. One may read the Vd as the apparent volume that relates the amount in the body to the concentration in plasma or blood. Low values mean little distribution into tissue, high ones wide distribution into tissue. One may read the clearance as a measure of how efficiently the substance is removed, as volume per time. Higher therefore signals a high capacity for elimination. Take `CN(Cc1ccc(C(F)(F)F)cc1)c1ccc2cc(C(=O)O)c(=O)oc2c1.NC(CO)(CO)CO` [C5, 1,3-dihydroxy-2-(hydroxymethyl)propan-2-aminium 7-(methyl(4-(trifluoromethyl)benzyl)amino)-2-oxo-2H-chromene-3-carboxylate]: the IC50 in series [1] amounted to 0.0144 ± 0.0005 µM. In addition, the values for the concentration for a half-maximal effect (EC50) in series [2] and in series [3] were 48 ± 4.3 µM and 94.7 ± 12.9 µM, respectively. Further, the “increase in Clint compared with C3” value in series [4] (human liver microsomes) is on record as “two-fold”. For the same compound, the half-life in series [4] (human, liver microsomes, exceeding the experimental endpoints) is greater than 2 h; in series [5] (female, iv, 1 mg/kg), 3.15 h; in series [5] (female, po, 5 mg/kg), 4.41 h; in series [5] (male, iv, 1 mg/kg), 3.65 h; in series [5] (male, po, 5 mg/kg), 4.04 h. Further, the “clinical observations after single oral dose” value (oral 10, 25, and 40 mg/kg, 7 days) is “no signs of clinical toxicity”. The “gross pathology, including general cardiotoxicity, after organ resection” value (oral, end of study) is recorded as “no gross pathology”. The bioavailability in series [5] (both, po, 5 mg/kg) is roughly 100%; in series [5] (female, po, 5 mg/kg), 125%; in series [5] (male, po, 5 mg/kg), 124%. In addition, the distribution volume (Vd) in series [5] (female, iv, 1 mg/kg) is 6.92 L/kg; in series [5] (male, iv, 1 mg/kg) it was 10.2 L/kg. Besides, the clearance in series [5] (female, iv, 1 mg/kg) came to 26.6 mL/min/kg; in series [5] (male, iv, 1 mg/kg) it was 34.3 mL/min/kg. For the same compound, the mouse body weight result in series [6] was “remained constant”. Besides, the “reduction in tumor mass compared with vehicle” value in series [6] (BALB/c) is given as roughly 41%. Also, in series [6] (BALB/c), the “reduction in tumor volume compared with vehicle” value is given as roughly 20%. In addition, the “effects on Pyr-driven maximal respiration in MPC-KO lines” value in series [7] was “largely diminished”.
